Six molecules from patent US5849587A, “Method of inhibiting viral replication in eukaryotic cells and of inducing apoptosis of virally-infected cells” (Cornell Research Foundation, Inc., priority 1995, dated 1998) can be followed below.

The target in one experiment is T1, Deoxyhypusyl hydroxylase (Homo sapiens, UniProt Q9BU89).
T1 construct: endogenous in cells
T1 sequence (Q9BU89 1-302): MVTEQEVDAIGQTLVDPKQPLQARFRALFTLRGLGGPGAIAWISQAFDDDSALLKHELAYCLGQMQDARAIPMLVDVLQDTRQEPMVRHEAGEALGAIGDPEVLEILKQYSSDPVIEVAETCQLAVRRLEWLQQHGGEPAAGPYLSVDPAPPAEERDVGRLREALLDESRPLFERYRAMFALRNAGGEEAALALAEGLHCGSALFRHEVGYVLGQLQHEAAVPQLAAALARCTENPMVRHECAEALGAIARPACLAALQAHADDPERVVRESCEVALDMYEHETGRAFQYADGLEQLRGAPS
Description: Cellular deoxyhypusyl hydroxylase (hypusine formation) inhibition, human B-cells and human smooth muscle cells. The class given is cell-based. The conditions noted are these: concentration for half-maximal inhibition. How it is done:
(§1) The cell-free enzyme assay was performed to test a pilot peptidomimetic which can be equipped with hydroxypyridone warheads. The cell culture studies were performed to establish the inherent inhibitory potency of such hydroxypyridones.
DOHH Assay. The intracellular conversion of peptide-bound deoxyhypusine to peptidyl hypusine was determined after preincubation of human T lymphocyte-derived cells (i.e. ACH-2) [Clouse et al., J. Immunol. 142, 431-438 (1989), which is hereby incorporated by reference] with the hypusine inhibitors mimosine and HK-1 for 60 minutes, followed by labeling for 21 hours with ^3 H-spermidine (3.75 μCi/ml) in wells containing 3×10^6 cells suspended in 8 ml of serum-supplemented and antibiotic-containing RPMI 1640 medium. Cells were then split into two groups, one of them being harvested immediately to assess degree of DOHH inhibition, and the other harvested after transfer of the cells into inhibitor-free medium for 2 hours to measure resumption of DOHH activity. Harvesting consisted in precipitation of washed cells with 10% TCA containing 1 mM each of putrescine, spermidine, and spermine. Cellular proteins from each sample were then hydrolyzed in 6N HCl at 110° C. for 16 hours. The hydrolysate was analyzed for labeled amino acids on an amino acid analyzer by published methods [Park et al., J. Biol. Chem., 257, 7217-7222 (1982), which is hereby incorporated by reference]. The retention times of hypusine and deoxyhypusine were determined from standards. Similar studies were performed in human B-cells and human smooth muscle cells.
The concentration required for half-maximal inhibition (ID50) of the cellular enzyme activity is identified for each compound.

The subject of experiment [1] is deoxyhypusyl hydroxylase (DOHH). Description: Cell-free DOHH assay with purified enzyme and unhydroxylated eIF-5A precursor. The class given is biochemical. The conditions noted are these: purified rat enzyme, unhydroxylated eIF-5A, FIG. 4B. How it is done: The graph gives the chromatographic profile of metabolically labeled hypusine/deoxyhypusine obtained after incubation of the purified rat enzyme with unhydroxylated eIF-5A in the absence (open squares) and presence (closed squares) of mimetic III. […] Peptides of appropriate structure or peptidomimetics like mimetic III can serve as "carriers" for a reactive moiety termed "warhead" that, by virture of its attachment to the carrier, becomes precisely oriented to interact optimally with the active site metal ion of DOHH. In the case of mimetic III, such a warhead moiety can be attached at the site indicated by the asterisk in FIG. 4A.
as §1
DOHH Assay. Enzyme activity was purified and determined, as described by Abbruzzese et al., J Biol Chem 261:3085-9 (1986), which is hereby incorporated by reference. Briefly, the enzyme is offered as labeled deoxyhypusine-containing eIF-5A precursor, and, following standard incubation conditions, the conversion into hypusine residues is measured by chromatographic amino acid separation of the hydrolyzed proteins. […] Biophys. Acta, 1221, 115-124 (1994), which is hereby incorporated by reference]. […]

Regarding `CCc1c(O)c(=O)ccn1CC` [HK-2], the “Deoxyhypusyl hydroxylase ID50 (cellular)” value on Deoxyhypusyl hydroxylase amounted to 50.
Regarding `COCCn1ccc(=O)c(O)c1C` [HK-15], the “Deoxyhypusyl hydroxylase ID50 (cellular)” value at Deoxyhypusyl hydroxylase turned out to be 60.
Still for that read-out and setting: as for `C=CCn1ccc(=O)c(O)c1C` [HK-16], the figure is 50; as for `CCn1ccc(=O)c(O)c1C` [HK-26], 58; as for `CCCn1ccc(=O)c(O)c1C` [HK-27], 50.
For `NC(CO)C1CCC(=O)NC(CO)C(=O)N(C(Cc2ccccc2)C(=O)O)NC1=O` (stereo not shown) [mimetic III], the “deoxyhypusine-to-hypusine conversion in presence of compound” value in experiment [1] was “clearly reduced”; in experiment [1] (listed as mimetic of Formula III), “the deoxyhypusine-to-hypusine conversion was suppressed”.
